Reference: patent publication US7553844B2 (Jarrow Formulas, Inc., priority 2003, dated 2009)

Legend:
P. berghei = assay: murine malaria model, Balb/c mice infected with P. berghei; type: in vivo, Plasmodium berghei; conditions: 50 or 150 mg/kg intragastrically
Protocol: FIG. 6. Antimalarial effects of RTV in mice infected with Plasmodium berghei.
FIG. 6A. Effects of RTV (50 mg/kg) on P. berghei growth in Balb/c mice. Results are shown as an average ±S.D. of the percentage of parasitized red blood cells at different days of follow-up.
FIG. 6B. Effects of RTV (50 mg/kg) on survival of mice infected with P. berghei. Results are shown as Kaplan Meyer curves and the P value for difference in survival is reported.
FIG. 6C. Effects of RTV (150 mg/kg) on P. berghei growth in Balb/c mice. Results are shown as an average ±S.D. of the percentage of parasitized red blood cells at different days of follow-up.
FIG. 6D. Effects of RTV (150 mg/kg) on survival of mice infected with P. berghei. Results are shown as Kaplan Meyer curves and the P value for difference in survival is reported.
Parasitemia was determined by light microscopy using Giemsa-stained thin smears and with fluorescence microscopy using the dye benzothiocarboxypurine.
To evaluate the effects of a PI in an animal model of malaria, Balb/c mice were inoculated intraperitoneally with P. berghei and then divided into three groups: 1) mock-treated with an intragastric inoculation of phosphate-buffer saline (PBS), 2) treated intragastrically with the ritonavir diluent (i.e., a 47% alcoholic solution) in the absence of ritonavir (placebo), and 3) treated intragastrically with 50 or 150 mg/kg.

[1] = tested on: P. falciparum (3D7, Ibginovia); assay: P. falciparum LDH activity, protease inhibitors alone; type: cell-based, Plasmodium falciparum; conditions: PI alone, 48 h, clinically observable concentrations
Protocol: Results are shown as a percentage of control values.
Ibginovia is an isolate obtained at the Istituto Superiore di Sanità, Rome, Italy, positive for mutations in the codons K76 and A220 of the pfcrt gene conferring CQ resistance. The parasite's origin is Nigeria. All parasites were maintained in vitro in RPMI 1640 medium to which was added human type A red blood cells (RBC) and 10% heat-inactivated human serum. All cultures were placed in a humidified incubator at 37° C. with a gas-controlled environment of 3% O2, 6% CO2, and 91% N2 and fed according to established procedures.
(§1) This assay is based on the principle that plasmodial lactate dehydrogenase (LDH) can use 3-acetylpyridine NAD (APAD) as a coenzyme, which is converted to APADH during lactate oxidation. All samples for LDH determination were measured spectrophotometrically at 650 nm. For these measurements, 10-50 μl of the malaria sample was added to the Mastat reagent, which is an optimized formulation for parasite LDH detection. […] The formation of APADH was determined at 650 nm using a multiwavelength plate reader. Each well of a test microtiter plate was automatically measured at 30-sec. intervals, and the individual data points were stored and subsequently plotted with a software program. […] As APADH is formed, the NBT is reduced and forms a formazan product that is blue and can be detected visually and measured at 650 nm. […]

[2] = tested on: CQ-resistant P. falciparum field isolate (Ibginovia); assay: P. falciparum LDH activity, CQ with or without PI, Ibginovia; type: cell-based, Plasmodium falciparum; conditions: PI with CQ, 48 h; PI at sub-optimally inhibiting concentration
Source text: In order to illustrate typical results, data are shown as a mean ±S.D. optical density (O.D.) at the end of a reaction mediated by plasmodial lactate dehydrogenase (LDH), as described in the Materials and Methods of the EXAMPLES section. The O.D. values are directly proportional to P. falciparum cell viability.
Ibginovia is an isolate obtained at the Istituto Superiore di Sanità, Rome, Italy, positive for mutations in the codons K76 and A220 of the pfcrt gene conferring CQ resistance. The parasite's origin is Nigeria. All parasites were maintained in vitro in RPMI 1640 medium to which was added human type A red blood cells (RBC) and 10% heat-inactivated human serum. […]
as §1, with “nm.” for “nm. For these measurements, 10-50 μl of the malaria sample was added to the Mastat reagent, which is an optimized formulation for parasite LDH detection.”

primary HIV-1 isolates = type: cell-based; conditions: 1 μM CQ; data not shown
Source text: (§2) Laboratory-adapted HIV-1IIIB and HIV-2CBL/20 strans, the primary isolates HIV-1UG3 (Clade A, R5) and HIV-1VI 829 (Clade C, R5), both obtained from antiretroviral-naive subjects were used. These viruses are fully described in the paper by Savarino A. et al. referenced above. The HIV-1PAVIA12 isolate was also used. It was donated by Dr. Maurizia Debiaggi, University of Pavia, Italy, who also performed its genotypic analysis. It belongs to Clade B and was isolated from an individual with HAART failure. […] Viral stocks were titrated biologically by the 50% endpoint dilution method, using MT-2 cells (laboratory strains) or PHA-activated peripheral blood mononuclear cells (PBMC) (primary isolates).
(§3) In acute infection assays, the appropriate cell types were incubated at 37° C. for 2 h with the viral stock suspensions at a multiplicity of infection (MOI) of approximately 0.1, unless otherwise specified. After three washes, cells were incubated in fresh culture medium for 7 days at 37° C., and cell-free supernatants at different intervals post-infection were harvested for ELISA measurement of HIV-1 p24 (NEN Life Science Prod., Boston Mass.) or HIV-2 p27 (Coulter, Hialeah, Fla.) (26, 33).
(§4) Tests were conducted to evaluate the concentrations of each drug in the different combinations that produced 90% inhibition of HIV-1 replication. For each drug combination, the FIC was determined. […]

[3] = tested on: CQ-resistant P. falciparum strain (W2); assay: P. falciparum LDH activity, CQ with or without PI, W2; type: cell-based, Plasmodium falciparum
Protocol: (§5) A fractional inhibitory concentration (FIC) was then calculated as drug EC90 of drug A in combination with drug 2/EC90 of drug B alone. The effect was considered to be synergistic when the sum of FICs was ≦0.5.
(§6) This assay is based on the principle that plasmodial lactate dehydrogenase (LDH) can use 3-acetylpyridine NAD (APAD) as a coenzyme, which is converted to APADH during lactate oxidation. All samples for LDH determination were measured spectrophotometrically at 650 nm. For these measurements, 10-50 μl of the malaria sample was added to the Mastat reagent, which is an optimized formulation for parasite LDH detection. The samples consisted of malaria cultures. All aliquots were added to 0.2 ml of the Malstat reagent using a 96-well microtiter plate format. The formation of APADH was determined at 650 nm using a multiwavelength plate reader. Each well of a test microtiter plate was automatically measured at 30-sec. intervals, and the individual data points were stored and subsequently plotted with a software program. The spectrophotometric assessment of LDH activity was facilitated by adding NBT (0.24 mM) and PES (0.033 mM) to Malstat reagent. As APADH is formed, the NBT is reduced and forms a formazan product that is blue and can be detected visually and measured at 650 nm. This assay is specific for parasitic LDH and is not influenced by the human enzyme. […]

HIV-1 IIIB = assay: acute infection assay, HIV-1 p24 ELISA, MT-4 cells; type: cell-based; conditions: Human immunodeficiency virus 1, MT4; HIV-1 IIIB-infected MT-4 cells; data not shown
Source text: as §2, §3
A fractional inhibitory concentration (FIC) was then calculated as drug EC90 of drug A in combination with drug 2/EC90 of drug B alone. The effect was considered to be synergistic when the sum of FICs was ≦0.5. […]

[4] = tested on: CQ-sensitive P. falciparum strain (3D7); assay: P. falciparum LDH activity, CQ with or without PI, 3D7; type: cell-based, Plasmodium falciparum
Protocol: as §5, §6

UG3 (HIV-1 Clade A) = assay: infection of PBMC with primary isolate UG3, p24; type: cell-based; conditions: without CQ
Source text: as §2, §3, §4

Structure (SMILES)	parasite multiplication in mice (P. berghei; Balb/c mice)	survival of treated mice (P. berghei; Kaplan-Mayer curves)	P. falciparum growth (LDH activity) [1]	response to CQ in CQ-resistant P. falciparum [2]	inhibitory effect of CQ alone (primary HIV-1 isolates)	sum of FICs ([3]; CQ+PI combination, W2 strain, ≦0.5 indicates synergism)	response to CQ in CQ-resistant P. falciparum ([3]; IDV (5 μM) with CQ, 48 h)	EC50 (HIV-1 IIIB)	sum of FICs ([4]; CQ+PI combination, 3D7 strain)	effects of IDV on CQ-response ([4]; IDV (5 μM) with CQ, compared with CQ-resistant strains)	p24 levels in supernatants (UG3 (HIV-1 Clade A); 100 nM IDV, 5 days after infection)	IDV concentration at which inhibitory effects were visible (UG3 (HIV-1 Clade A))
CC(C)c1nc(CN(C)C(=O)N[C@H](C(=O)N[C@@H](Cc2ccccc2)C[C@H](O)[C@H](Cc2ccccc2)NC(=O)OCc2cncs2)C(C)C)cs1 [RTV, ritonavir]	dose-dependently retarded parasite multiplication in mice	increased survival of treated mice in a significant manner	dose-dependently inhibited P. falciparum growth	restored the response to CQ								
CCN(CC)CCCC(C)Nc1ccnc2cc(Cl)ccc12 (stereo not shown) [CQ, Chloroquine]					minimal							
CC(C)(C)NC(=O)[C@@H]1CN(Cc2cccnc2)CCN1C[C@@H](O)C[C@@H](Cc1ccccc1)C(=O)N[C@H]1c2ccccc2C[C@H]1O [IDV, indinavir]			dose-dependently inhibited P. falciparum growth			≤ 0.5	restored the response to CQ	~10 nM	> 0.5	less dramatic	typical peak in the p24 levels in supernatants	1 µM
